Several values for one entry are separate records, joined by “and”; a condition that tells them apart may be missing. Equal values may be shown once.
Assays:
[1] = biological target: T1, WWP2 (GST-tagged WWP2-FL) (Homo sapiens, UniProt O00308); experiment: in vitro autoubiquitination assay (single shot and dose dependency), WWP2; assay type: biochemical; conditions: for inhibition of WWP2 (in words): autoubiquitination assay; for WWP2 RA (%) relative activity: single shot, compound at 1 mM (1% DMSO), standardized to 0 and 100% controls; for IC50: nonlinear regression of RA against log concentration, 1 mM to 10 nM, 1% DMSO
T1 construct: Full- length WWP2 (WWP2-FL); made in house; host or cells: E. coli BL21-CodonPlus RP (plasmid pGEX2T-WWP2-FL, Dr Andrew Chantry's Lab)
T1 sequence (O00308 whole entry): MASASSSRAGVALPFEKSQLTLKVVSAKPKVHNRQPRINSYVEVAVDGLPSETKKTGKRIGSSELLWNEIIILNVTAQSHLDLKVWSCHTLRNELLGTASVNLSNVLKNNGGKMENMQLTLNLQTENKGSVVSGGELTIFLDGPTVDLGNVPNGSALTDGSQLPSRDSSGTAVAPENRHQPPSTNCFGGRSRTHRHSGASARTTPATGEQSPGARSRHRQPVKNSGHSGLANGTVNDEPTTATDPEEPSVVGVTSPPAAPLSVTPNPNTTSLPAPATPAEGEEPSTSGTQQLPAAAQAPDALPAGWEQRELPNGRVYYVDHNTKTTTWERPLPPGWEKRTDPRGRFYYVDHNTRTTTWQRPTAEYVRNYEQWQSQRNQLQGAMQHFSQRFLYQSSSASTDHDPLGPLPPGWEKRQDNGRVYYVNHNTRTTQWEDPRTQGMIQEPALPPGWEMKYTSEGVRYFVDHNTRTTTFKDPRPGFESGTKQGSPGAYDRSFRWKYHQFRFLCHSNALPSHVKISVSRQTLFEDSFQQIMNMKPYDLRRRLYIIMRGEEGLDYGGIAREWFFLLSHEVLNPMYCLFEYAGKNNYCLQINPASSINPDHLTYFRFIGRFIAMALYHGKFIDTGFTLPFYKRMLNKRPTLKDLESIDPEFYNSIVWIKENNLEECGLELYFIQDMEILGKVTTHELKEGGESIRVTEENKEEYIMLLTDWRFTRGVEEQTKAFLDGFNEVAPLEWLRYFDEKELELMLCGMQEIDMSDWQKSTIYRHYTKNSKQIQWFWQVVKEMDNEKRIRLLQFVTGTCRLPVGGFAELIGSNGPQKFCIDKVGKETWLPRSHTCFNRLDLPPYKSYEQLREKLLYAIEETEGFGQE
Experimental: (§1) A single shot in vitro autoubiquitination assay was performed for I3C, DIM and each of the derivatives against WWP1 and WWP2 using a compound concentration of 1 mM (1% DMSO) (SI Figure S3). […] These active compounds were then subjected to a detailed dose dependency analysis leading to IC50 values. This strategy has previously been employed to screen other WWP1/WWP2 small molecule inhibitors as well as used to assess I3C inhibition toward NEDD4-1.[29],[32] In this way, compounds displaying a relative activity (RA) of less than 50% in the single shot assay were further screened for dose-dependency using a logarithmic concentration range from 10 nM to 1 mM (1% DMSO) (SI Figure S4). […] These were confirmed by counter assays to remove compounds possibly interacting with other enzymes in the assay or interfering with the assay directly (SI Table S1).
(§2) Cell lysate containing His-tagged WWP1-L34H or GST-tagged WWP2-FL proteins were incubated on either 96-well Clear Pierce glutathione or nickel-coated plates for 1 h. Reaction mixtures of either 3 ng/well GST-Uba1 and 15 ng/well UbcH7 or 10 ng/well His-Uba1 and 150 ng/well His-UbcH7 were incubated together in 25 mM Tris pH 8.0, 100 mM NaCl, 4 mM MgCl2 containing 60 ng/well FLAG-ubiquitin and 1.25 mM ATP for 40 min. A prior 1% BSA plate blocking step is required for nickel-coated plates. After plate washing, 2 μL of the compound was added at the desired concentration (1% DMSO) followed by 18 μL of the reaction mixture. This was then incubated for 2 h with 0 and 100% controls before 100 μL of anti-FLAG M2-Peroxidase HRP (1:10,000 PBST) was added to each well and incubated for 1 h. Finally, 100 μL of 1 × TMB substrate solution (Invitrogen) was added to each well and incubated for up to 10 min until sufficient blue color change was observed. To stop the reaction, 100 μL of 1 M HCl was added. For the counter assay, 3 ng/well GST-Uba1 and 200 ng/well UbcH7 were incubated with the other reaction mixture components for 1 h before incubating onto plates for a further 1 h. All other steps were followed. The plates were washed three times with PBST (and 15 mM Imidazole) between each step. Quantification was measured by absorbance read at 450 nm. All assay optimizations were as previously reported.[32] IC50 nonlinear regression curves were calculated in GraphPad v10.2 (Prism). […]
(§3) Auto-ubiquitination Assay
(§4) Cell lysate containing His-tagged WWP1-L34H or GST-tagged WWP2-FL proteins were incubated on either 96-well Clear Pierce glutathione 2 or nickel-coated plates for 1 hour. Reaction mixtures of either 3 ng/well GST-Uba1 and 15 ng/well UbcH7 or 10 ng/well His-Uba1 and 150 ng/well His-UbcH7 were incubated together in 25 mM Tris pH 8.0, 100 mM NaCl, 4 mM MgCl2 containing 60 ng/well FLAG-ubiquitin and 1.25 mM ATP for 40 minutes. A prior 1 % BSA plate blocking step is required for nickel-coated plates. After plate washing, 2 μL of the compound was added at the desired concentration (1 % DMSO) followed by 18 μL of the reaction mixture. This was then incubated for 2 hours with 0% and 100% controls before 100 μL of anti-FLAG M2-Peroxidase HRP (1: 10,000 PBST) was added to each well and incubated for 1 hour.
(§5) Finally, 100 μL of 1 × TMB substrate solution (Invitrogen) was added to each well and […]
(§6) incubated for up to 10 minutes until sufficient blue colour change was observed. To stop the reaction, 100 μL of 1 M HCl was added. For the counter assay, 3 ng/well GST-Uba1 and 200 ng/well UbcH7 were incubated with the other reaction mixture components for 1 hour before incubating onto plates for a further 1 hour. All other steps were followed.
(§7) The plates were washed three times with PBST (and 15 mM Imidazole) between each step. Quantification was measured by absorbance read at 450 nm. All assay optimisations have been previously reported by Watt and colleagues3.
(§8) Relative activity (RA) was determined by comparing the autoubiquitination of the WWP ligases in the presence of each compound, i.e TMB absorbance (450 nm), to the […]

[2] = tested on: NEDD4-1; design: method as in PMID 27979631; conditions: cited from earlier work
[3] = biological target: T2, WWP1 (His-tagged WWP1-L34H) (Homo sapiens, UniProt Q9H0M0); experiment: in vitro autoubiquitination assay (single shot and dose dependency), WWP1; assay type: biochemical; conditions: for inhibition of WWP1 (in words): autoubiquitination assay; for WWP1 RA (%) relative activity: single shot, compound at 1 mM (1% DMSO), standardized to 0 and 100% controls; for IC50: nonlinear regression of RA against log concentration, 1 mM to 10 nM, 1% DMSO
T2 construct: WWP1- 2,3-linker-WW3-WW4-HECT (WWP1-L34H); made in house; host or cells: E. coli BL21-CodonPlus RP (plasmid pET32a-WWP1-L34H, gift of Dr Wenyu Wen)
T2 sequence (Q9H0M0 415-922, stated change not applied): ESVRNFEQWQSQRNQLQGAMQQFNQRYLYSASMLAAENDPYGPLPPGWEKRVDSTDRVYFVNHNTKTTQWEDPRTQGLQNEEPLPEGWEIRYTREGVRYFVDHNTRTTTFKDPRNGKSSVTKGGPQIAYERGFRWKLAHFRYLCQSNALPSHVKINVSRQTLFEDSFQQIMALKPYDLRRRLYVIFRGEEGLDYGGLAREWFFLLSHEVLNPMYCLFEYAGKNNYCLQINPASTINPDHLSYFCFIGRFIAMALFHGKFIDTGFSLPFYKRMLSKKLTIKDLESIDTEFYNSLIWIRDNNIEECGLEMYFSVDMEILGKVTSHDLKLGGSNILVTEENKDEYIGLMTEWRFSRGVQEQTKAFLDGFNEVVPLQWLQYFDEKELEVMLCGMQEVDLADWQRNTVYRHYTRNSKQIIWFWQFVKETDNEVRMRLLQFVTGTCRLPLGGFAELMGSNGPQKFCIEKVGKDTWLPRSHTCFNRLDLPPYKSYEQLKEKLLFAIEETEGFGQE
Experimental: as §1, §2, §3, §4, §5, §6, §7, §8

[4] = design: method as in PMID 17699787; conditions: cited from earlier work
[5] = biological target: T3, UbcH7 (Homo sapiens, UniProt P68036); experiment: counter auto-ubiquitination screen; assay type: biochemical; conditions: counter assay, GST-Uba1 and UbcH7 without E3
T3 construct: GST (N, cleaved yes); made in house; host or cells: E. coli BL21 (DE3) (pGEX4T-1-UbcH7a and pGEX4T-1-hUba1, gifts of Dr Arthur L Haas's Lab)
T3 sequence (P68036 whole entry): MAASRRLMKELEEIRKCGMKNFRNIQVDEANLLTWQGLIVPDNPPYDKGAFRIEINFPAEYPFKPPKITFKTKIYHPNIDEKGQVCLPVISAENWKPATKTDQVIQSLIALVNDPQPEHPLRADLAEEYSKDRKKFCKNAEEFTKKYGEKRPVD
Experimental: as §1
Cell lysate containing His-tagged WWP1-L34H or GST-tagged WWP2-FL proteins were incubated on either 96-well Clear Pierce glutathione or nickel-coated plates for 1 h. Reaction mixtures of either 3 ng/well GST-Uba1 and 15 ng/well UbcH7 or 10 ng/well His-Uba1 and 150 ng/well His-UbcH7 were incubated together in 25 mM Tris pH 8.0, 100 mM NaCl, 4 mM MgCl2 containing 60 ng/well FLAG-ubiquitin and 1.25 mM ATP for 40 min. A prior 1% BSA plate blocking step is required for nickel-coated plates. […] Quantification was measured by absorbance read at 450 nm. […] IC50 nonlinear regression curves were calculated in GraphPad v10.2 (Prism). […]
The plates were washed three times with PBST (and 15 mM Imidazole) between each step. Quantification was measured by absorbance read at 450 nm. […]
Relative activity (RA) was determined by comparing the autoubiquitination of the WWP ligases in the presence of each compound, i.e TMB absorbance (450 nm), to the 100 % controls (1 % DMSO only), further normalising against background absorbance using 0 % controls (no E3 loaded). […]
IC50 non-linear regression curves were calculated in GraphPad v10.2 (Prism). […]

[6] = biological target: WWP1 (Homo sapiens, UniProt Q9H0M0); design: method as in PMID 31097636, doi:10.1016/j.phytol.2023.01.002; conditions: cited from earlier work
Sequence of WWP1 (Q9H0M0 546-922 limits assumed): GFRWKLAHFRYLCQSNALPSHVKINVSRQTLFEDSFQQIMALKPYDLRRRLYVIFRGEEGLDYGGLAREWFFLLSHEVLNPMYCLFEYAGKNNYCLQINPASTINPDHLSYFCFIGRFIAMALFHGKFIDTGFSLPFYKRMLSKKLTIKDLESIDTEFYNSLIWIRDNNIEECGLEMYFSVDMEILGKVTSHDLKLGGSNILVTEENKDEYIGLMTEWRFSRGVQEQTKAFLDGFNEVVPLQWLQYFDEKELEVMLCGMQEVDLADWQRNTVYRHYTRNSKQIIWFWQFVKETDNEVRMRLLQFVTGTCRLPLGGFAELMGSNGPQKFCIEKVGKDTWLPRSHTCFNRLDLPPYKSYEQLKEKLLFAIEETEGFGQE

Row | Compound | inhibition of WWP2 (in words) [1] | WWP2 RA (%) relative activity [1] | IC50 [2] | inhibition of WWP1 (in words) [3] | WWP1 RA (%) relative activity [3] | increase in antiproliferative properties relative to I3C [4] | IC50 [3] | UbcH7 Activity (%) [5] | IC50 [1] | IC50 [6]
1 | OCc1cn(Cc2ccccc2)c2ccccc12 [Compound 13, N-benzylindole-3-carbinol] | no evidence of inhibition | 97.6% | 12.3 µM | no evidence of inhibition | 105.9% | – | – | – | – | –
2 | O=[N+]([O-])c1cc(S(=O)(=O)n2cc(CO)c3ccccc32)ccc1Cl [OSU-A9] | – | – | – | – | – | 100 fold | – | – | – | –
3 | c1ccc2c(Cc3c[nH]c4ccccc34)c[nH]c2c1 [DIM, 3,3′-diindolylmethane] | – | 62.2 ± 6.1% and 62.2% | – | displayed inhibition | 17.2% | – | 111 µM | 83.3 ± 2.0% | – | –
4 | O=S(=O)(c1ccc(C(F)(F)F)cc1)n1cc(CO)c2ccccc21 [Compound 16, N-(4-trifluoromethylbenzenesulfonyl)indole-3-carbinol] | displayed inhibition | 30.0% | – | displayed inhibition | 22.5% | – | 799 µM | 79.7 ± 1.5% | 642 µM | –
5 | CCc1ccc(C=CC(=O)Nc2ccc(C(C)=O)cc2)o1 [Heclin] | – | – | – | – | – | – | – | – | – | 6.9 µM
6 | Cc1ccc(S(=O)(=O)n2cc(CO)c3ccccc32)cc1 [Compound 15, N-(4-methylbenzenesulfonyl)indole-3-carbinol] | displayed inhibition | 39.2% | – | displayed inhibition | 11.4% | – | 218 µM | 86.3 ± 1.8% | 224 µM | –

— PMC11840788, “3,3′-Diindolylmethane (DIM): A Molecular Scaffold for Inhibition of WWP1 and WWP2, Members of the NEDD4 Family HECT E3 Ligases” (ACS Omega, 2025)
